Laboratory results reported in patent US9932589B2, “EML4-ALK fusion gene” (Astellas Pharma Inc., priority 2006, dated 2018).

Tests used:
U-87MG cells = test: anchorage independent growth on spheroid plate, U-87MG cells expressing full length ALK; format: cell-based, human; conditions: siRNA transfected, 3 days; for U-87MG cell growth inhibition rate: spheroid plate
Protocol: (§1) The v1 expressing 3T3 cells (Example 6(1)) and one of the human glioma cells expressing the full length ALK polypeptide and not expressing EML4-ALK fusion polynucleotide endogenously, U-87 MG cells, were seeded to a 96 well spheroid plate (Sumilon Celltight Spheroid 96U, Sumitomo Bakelite Inc.) at 3000 cells per well in a medium containing 10% fetal bovine serum (DMEM for v1 expressing 3T3 cells and RPMI 1640 for U-87MG). […] At the same time, cells were counted before the addition of drugs (Day 0). Then, cells were cultured under 5% CO2, at 37° C. for 3 days, mixed with a reagent for measuring cell number (CellTiter-Glo™ Luminescent Cell Viability Assay; Promega Inc.) stirred for 20 minutes, and the measurements (day 3) were carried out using a luminometer (ML3000 microtiter plate luminometer; Dynatech Laboratories Inc.).

human ALK gene = test: siRNA inhibition of mRNA expression of ALK gene in U-87MG cells, quantitative PCR; format: cell-based; conditions: siRNA 20 nM, 72 hours; for Inhibition rate for ALK gene expression (U-87 MG cells): mRNA
Protocol: (§2) The v1 expressing 3T3 cells and U-87MG cells were seeded to 12 well plates (IWAKI; Asahi techno glass corp.) at 50,000 cells and 150,000 cells, respectively. Four hours later, using a transfection reagent (Lipofectamine RNAiMax; Invitrogen Inc.), siRNA-1 to siRNA-9 were prepared to a final concentration of 20 nM and transfected to cells according to the attached instruction. In addition, as a control no siRNA transfection samples were prepared. After 72 hours, the medium was removed, and total RNA was extracted using an RNA purification kit (RNeasy Mini Kit; QIAGEN Inc.) according to the attached instruction, and cDNA was prepared using a cDNA synthesizing kit (ThermoScript RT-PCR System; Invitrogen Inc.) according to the attached instruction.
(§3) The amount of expressed mRNA of the EML4-ALK fusion polynucleotide v1 in v1 expressing 3T3 cells and the amount of mRNA of the ALK gene in U-87MG cells were quantitated using a quantitative PCR reagent (Power SYBR Green PCR Master Mix; Applied Biosystems Inc.) The PCR reaction was carried out as follows: after 10 minutes incubation at 95° C., 45 cycles of 95° C. for 15 seconds and 60° C. for 60 seconds, and then one cycle of 95° C. for 15 seconds, 60° C. for 15 seconds and 95° C. for 15 seconds to complete the reaction. In addition, to calibrate the amount of expression, the amount of expression of the mouse cyclophilin B gene and the human GAPDH gene was similarly quantitated for v1 expressing 3T3 cells and U-87MG cells, respectively. Analyses were carried out using a sequence detector (ABI PRISM 7900 Sequence Detection System; Perkin-Elmer Applied Biosystems Inc.).
(§4) Oligo nucleotides consisting of the base sequences represented by SEQ ID NO: 44 and 48, SEQ ID NO: 50 and 56, SEQ ID NO: 44 and 48 and SEQ ID NO: 12 and 13 were used as the primer sets that specifically recognize the EML4-ALK fusion polynucleotide v1, the mouse cyclophilin B gene, the human ALK gene and the human GAPDH gene. Also, to obtain a standard curve to calculate the amount of respective mRNA, PCR was performed using human genomic DNA (Clontech) as a template for EML4-ALK fusion polynucleotide v1, human ALK and human GAPDH, and using mouse genomic DNA (Clontech) as a template for mouse cyclophilin B and the aforementioned primer sets under the same condition. Since a primer set corresponding to human ALK polynucleotide exon 29 was used to detect the EML4-ALK fusion polynucleotide v1, the standard curve can be obtained using human genomic DNA. The expression amount of the EML4-ALK fusion polynucleotide v1 and the human ALK gene in respective samples was calibrated with the expression amount of the mouse cyclophilin B gene and the human GAPDH gene to obtain the calibrated expression amount.

[1] = test system: EML4-ALK fusion polynucleotide v1; test: siRNA inhibition of mRNA expression of EML4-ALK fusion polynucleotide v1 in v1 expressing 3T3 cells, quantitative PCR; format: cell-based, mouse; conditions: siRNA 20 nM, 72 hours; for Inhibition rate for EML4-ALK gene expression (v1 expressing 3T3 cells): mRNA
Protocol: as §2, §3, §4

v1 expressing 3T3 cells = test: anchorage independent growth on spheroid plate, v1 expressing 3T3 cells; format: cell-based, mouse; conditions: siRNA transfected, 3 days; for v1 expressing 3T3 cells growth inhibition rate: spheroid plate
Protocol: as §1

Substance | U-87MG cell growth inhibition rate (U-87MG cells) | Inhibition rate for ALK gene expression (U-87 MG cells) (human ALK gene) | Inhibition rate for EML4-ALK gene expression (v1 expressing 3T3 cells) [1] | v1 expressing 3T3 cells growth inhibition rate (v1 expressing 3T3 cells) | growth of U-87MG cells (in words) (U-87MG cells) | expression inhibitory effect on the human ALK gene (in words) (human ALK gene) | anchorage independent growth of v1 expressing 3T3 cells (in words) (v1 expressing 3T3 cells) | expression inhibitory effect on the EML4-ALK fusion polynucleotide (in words) [1]
siRNA-1: siRNA, sense strand SEQ ID NO: 111, antisense SEQ ID NO: 112; fusion area of EML4-ALK v1 (sense UGGGAAAGGACCUAAAGTGTA; antisense CACTTTAGGUCCUUUCCCAGG; chemistry not given here) | −13% | −12% | 80% | – | – | – | – | –
siRNA-2: siRNA, sense strand SEQ ID NO: 113, antisense SEQ ID NO: 114; fusion area of EML4-ALK v1 (sense GGGAAAGGACCUAAAGTGTAC; antisense ACACTTUAGGUCCUUUCCCAG; chemistry not given here) | 25% | 11% | 66% | – | – | – | – | –
siRNA-3: siRNA, sense strand SEQ ID NO: 115, antisense SEQ ID NO: 116; fusion area of EML4-ALK v1 (sense GGACCUAAAGUGUACCGCCGG; antisense GGCGGTACACUUUAGGUCCUU; chemistry not given here) | −21% | 10% | 62% | – | – | – | – | –
siRNA-4: siRNA, sense strand SEQ ID NO: 117, antisense SEQ ID NO: 118; fusion area of EML4-ALK v1 (sense CCUAAAGUGUACCGCCGGAAG; antisense TCCGGCGGUACACUUUAGGUC; chemistry not given here) | −8% | 22% | 86% | – | – | – | – | –
siRNA-5: siRNA, sense strand SEQ ID NO: 119, antisense SEQ ID NO: 120; fusion area of EML4-ALK v1 (sense AAAGUGUACCGCCGGAAGCAC; antisense GCTTCCGGCGGUACACUUUAG; chemistry not given here) | −13% | −22% | 76% | – | – | – | – | –
siRNA-6: siRNA, sense strand SEQ ID NO: 121, antisense SEQ ID NO: 122; fusion area of EML4-ALK v1 (sense AAGUGUACCGCCGGAAGCACC; antisense TGCTTCCGGCGGUACACUUUA; chemistry not given here) | 16% | 15% | 69% | 97% | – | – | – | –
siRNA-7: siRNA, sense strand SEQ ID NO: 123, antisense SEQ ID NO: 124; ALK area of EML4-ALK v1 (sense GGCCUGUAUACCGGATAATGA; antisense ATTATCCGGUAUACAGGCCCA; chemistry not given here) | 15% | – | 67% | 87% | did not inhibit the growth of U-87MG cells | – | – | –
siRNA-8: siRNA, sense strand SEQ ID NO: 125, antisense SEQ ID NO: 126; ALK area of EML4-ALK v1 (sense GGCCUGUAUACCGGAUAAUGA; antisense AUUAUCCGGUAUACAGGCCCA; chemistry not given here) | −21% | – | 70% | – | did not inhibit the growth of U-87MG cells | – | – | –
siRNA-9: negative control siRNA, SEQ ID NO: 127 and 128, base sequence not present in mammalian cells (chain 1 CGGCUGCAAUCGATTGATAGC; chain 2 TATCAAUCGAUUGCAGCCGAA; chemistry not given here) | −16% | −31% | 29% | −35% | did not inhibit the growth | did not demonstrate strong expression inhibitory effect | did not inhibit the growth | did not demonstrate strong expression inhibitory effect
